{"source": "paper PMC10641818", "about": "“Development of First-in-Class Dual Sirt2/HDAC6 Inhibitors as Molecular Tools for Dual Inhibition of Tubulin Deacetylation” (Journal of Medicinal Chemistry, 2023)", "key": {"[1]": {"target": "T1, Sirt2 (demyristoylation) (Homo sapiens, UniProt Q8IXJ6)", "T1 construct": "the respective sirtuin (Sirt1_134–747, Sirt2_56–356, or Sirt3_118–395) was mixed with; made in house; host or cells: Escherichia coli BL21 Star (DE3)", "T1 sequence (Q8IXJ6 56-356)": "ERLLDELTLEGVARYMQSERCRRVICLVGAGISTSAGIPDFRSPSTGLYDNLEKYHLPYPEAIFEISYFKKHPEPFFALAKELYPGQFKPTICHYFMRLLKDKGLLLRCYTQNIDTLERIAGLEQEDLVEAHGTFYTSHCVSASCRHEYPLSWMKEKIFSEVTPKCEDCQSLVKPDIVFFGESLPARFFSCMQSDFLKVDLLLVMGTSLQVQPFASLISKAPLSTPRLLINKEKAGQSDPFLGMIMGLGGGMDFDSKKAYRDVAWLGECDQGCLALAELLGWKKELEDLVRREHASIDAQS", "experiment": "Discontinuous Sirt2 demyristoylation assay (ZMML substrate)", "format": "biochemical", "conditions": "mean ± SD"}, "[2]": {"target": "HDAC8 (Homo sapiens, UniProt Q9BY41)", "sequence (Q9BY41 whole entry, species assumed)": "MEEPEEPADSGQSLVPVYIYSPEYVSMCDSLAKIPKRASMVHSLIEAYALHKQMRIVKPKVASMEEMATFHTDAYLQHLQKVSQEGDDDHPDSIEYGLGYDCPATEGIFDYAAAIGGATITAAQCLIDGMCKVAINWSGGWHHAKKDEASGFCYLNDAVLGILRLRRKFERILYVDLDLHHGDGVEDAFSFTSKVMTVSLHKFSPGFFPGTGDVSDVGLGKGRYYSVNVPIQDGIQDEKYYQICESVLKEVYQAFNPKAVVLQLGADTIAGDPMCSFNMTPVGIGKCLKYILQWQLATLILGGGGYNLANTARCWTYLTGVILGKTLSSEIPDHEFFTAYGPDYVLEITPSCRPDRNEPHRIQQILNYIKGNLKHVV", "experiment": "HDAC8 in vitro deacylation assay (ZMTFAL)", "format": "biochemical"}, "[3]": {"target": "HDAC5 (Homo sapiens, UniProt Q9UQL6)", "sequence (Q9UQL6 whole entry, species assumed)": "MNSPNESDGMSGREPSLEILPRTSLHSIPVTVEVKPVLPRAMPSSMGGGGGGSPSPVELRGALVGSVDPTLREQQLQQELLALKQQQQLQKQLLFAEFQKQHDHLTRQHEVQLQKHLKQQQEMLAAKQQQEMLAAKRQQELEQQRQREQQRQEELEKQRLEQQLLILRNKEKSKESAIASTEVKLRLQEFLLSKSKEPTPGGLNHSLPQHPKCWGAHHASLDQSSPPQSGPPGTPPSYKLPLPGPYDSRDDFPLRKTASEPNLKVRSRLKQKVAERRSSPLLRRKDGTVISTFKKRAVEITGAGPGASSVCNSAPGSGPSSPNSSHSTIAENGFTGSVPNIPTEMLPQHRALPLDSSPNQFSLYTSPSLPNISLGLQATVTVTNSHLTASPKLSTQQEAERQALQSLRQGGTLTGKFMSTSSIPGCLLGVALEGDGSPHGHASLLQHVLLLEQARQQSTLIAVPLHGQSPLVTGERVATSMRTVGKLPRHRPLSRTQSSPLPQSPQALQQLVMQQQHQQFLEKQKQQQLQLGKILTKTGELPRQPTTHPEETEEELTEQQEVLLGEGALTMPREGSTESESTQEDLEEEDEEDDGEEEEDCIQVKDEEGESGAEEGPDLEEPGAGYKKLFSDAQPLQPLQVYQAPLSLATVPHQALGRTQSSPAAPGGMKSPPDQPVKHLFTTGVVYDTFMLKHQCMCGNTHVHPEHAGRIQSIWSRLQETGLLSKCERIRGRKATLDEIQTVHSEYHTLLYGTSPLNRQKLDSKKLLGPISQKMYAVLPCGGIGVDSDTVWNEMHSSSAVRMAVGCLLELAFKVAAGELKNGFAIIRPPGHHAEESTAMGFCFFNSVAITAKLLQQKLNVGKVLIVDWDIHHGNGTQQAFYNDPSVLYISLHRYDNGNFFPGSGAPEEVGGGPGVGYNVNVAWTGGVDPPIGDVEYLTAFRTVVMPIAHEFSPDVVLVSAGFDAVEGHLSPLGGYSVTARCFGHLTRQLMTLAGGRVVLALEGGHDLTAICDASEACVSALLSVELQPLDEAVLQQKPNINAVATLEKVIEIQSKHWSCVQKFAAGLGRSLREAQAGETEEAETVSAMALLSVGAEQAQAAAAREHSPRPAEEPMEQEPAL", "experiment": "HDAC5 continuous fluorescence deacylation assay", "format": "biochemical"}, "[4]": {"target": "HDAC4 (Homo sapiens, UniProt P56524)", "sequence (P56524 whole entry, species assumed)": "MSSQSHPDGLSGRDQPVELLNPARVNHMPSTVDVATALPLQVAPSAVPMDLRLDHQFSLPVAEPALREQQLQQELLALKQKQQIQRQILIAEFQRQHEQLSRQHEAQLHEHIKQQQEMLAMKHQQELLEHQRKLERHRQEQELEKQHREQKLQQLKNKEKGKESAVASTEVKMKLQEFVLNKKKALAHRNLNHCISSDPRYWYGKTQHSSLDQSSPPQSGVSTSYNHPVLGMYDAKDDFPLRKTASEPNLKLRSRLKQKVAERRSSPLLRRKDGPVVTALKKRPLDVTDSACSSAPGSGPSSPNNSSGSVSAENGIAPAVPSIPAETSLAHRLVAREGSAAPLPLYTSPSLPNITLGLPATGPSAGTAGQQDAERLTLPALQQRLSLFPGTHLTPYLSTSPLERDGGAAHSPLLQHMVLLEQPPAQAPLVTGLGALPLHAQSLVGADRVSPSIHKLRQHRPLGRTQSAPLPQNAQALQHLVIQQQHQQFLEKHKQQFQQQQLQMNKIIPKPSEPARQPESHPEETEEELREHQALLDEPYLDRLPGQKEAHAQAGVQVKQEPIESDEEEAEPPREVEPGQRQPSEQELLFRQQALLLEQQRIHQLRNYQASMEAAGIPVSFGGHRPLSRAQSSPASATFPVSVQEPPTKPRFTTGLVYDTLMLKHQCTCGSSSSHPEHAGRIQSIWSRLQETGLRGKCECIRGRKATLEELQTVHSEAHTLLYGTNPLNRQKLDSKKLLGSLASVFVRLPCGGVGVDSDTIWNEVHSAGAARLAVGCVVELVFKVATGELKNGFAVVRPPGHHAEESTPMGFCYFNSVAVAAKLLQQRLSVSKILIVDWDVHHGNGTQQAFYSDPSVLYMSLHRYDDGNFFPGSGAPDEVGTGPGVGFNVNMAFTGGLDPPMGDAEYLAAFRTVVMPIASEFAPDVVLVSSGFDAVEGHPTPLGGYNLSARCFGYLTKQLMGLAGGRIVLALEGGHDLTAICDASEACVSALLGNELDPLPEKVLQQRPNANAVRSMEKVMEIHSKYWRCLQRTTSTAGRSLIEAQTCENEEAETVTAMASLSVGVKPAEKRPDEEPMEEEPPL", "experiment": "HDAC4 continuous fluorescence deacylation assay", "format": "biochemical"}, "[5]": {"target": "T2, HDAC6 (Homo sapiens, UniProt Q9UBN7)", "T2 sequence (Q9UBN7 1-1215)": "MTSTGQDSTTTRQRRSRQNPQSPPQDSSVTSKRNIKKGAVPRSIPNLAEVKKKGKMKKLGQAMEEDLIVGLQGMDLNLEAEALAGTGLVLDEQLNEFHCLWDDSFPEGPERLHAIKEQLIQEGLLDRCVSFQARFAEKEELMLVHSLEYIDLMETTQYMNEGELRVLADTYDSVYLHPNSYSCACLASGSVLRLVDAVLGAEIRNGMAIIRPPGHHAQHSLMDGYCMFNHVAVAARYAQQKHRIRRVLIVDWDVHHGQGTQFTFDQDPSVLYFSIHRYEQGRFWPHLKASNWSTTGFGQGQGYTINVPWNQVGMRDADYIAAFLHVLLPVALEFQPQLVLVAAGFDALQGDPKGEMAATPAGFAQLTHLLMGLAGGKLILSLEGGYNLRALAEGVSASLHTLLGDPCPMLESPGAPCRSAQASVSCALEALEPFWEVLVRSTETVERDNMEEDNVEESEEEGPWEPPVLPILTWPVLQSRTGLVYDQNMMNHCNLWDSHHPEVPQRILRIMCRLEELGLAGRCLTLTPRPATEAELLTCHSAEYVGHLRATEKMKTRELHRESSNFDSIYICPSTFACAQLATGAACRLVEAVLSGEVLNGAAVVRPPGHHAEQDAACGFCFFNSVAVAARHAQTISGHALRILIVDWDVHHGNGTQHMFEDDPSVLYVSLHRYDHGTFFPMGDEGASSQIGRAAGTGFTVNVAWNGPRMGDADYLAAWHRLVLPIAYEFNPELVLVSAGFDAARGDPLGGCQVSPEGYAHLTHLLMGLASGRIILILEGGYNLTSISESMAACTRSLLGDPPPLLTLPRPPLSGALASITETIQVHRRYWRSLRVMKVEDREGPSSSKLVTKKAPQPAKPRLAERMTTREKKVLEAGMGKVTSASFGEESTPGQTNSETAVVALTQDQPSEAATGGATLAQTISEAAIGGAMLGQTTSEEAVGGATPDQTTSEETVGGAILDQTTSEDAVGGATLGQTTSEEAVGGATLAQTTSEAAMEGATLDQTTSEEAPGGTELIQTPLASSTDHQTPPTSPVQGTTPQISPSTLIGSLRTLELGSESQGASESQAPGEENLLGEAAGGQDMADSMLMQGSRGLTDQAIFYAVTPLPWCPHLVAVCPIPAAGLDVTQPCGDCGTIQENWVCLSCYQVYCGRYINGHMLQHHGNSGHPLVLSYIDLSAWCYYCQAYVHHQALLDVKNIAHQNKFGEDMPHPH", "experiment": "HDAC6 in vitro deacetylation assay (ZMAL)", "format": "biochemical", "parameters": "purchased BPS Bioscience 50006"}, "[6]": {"tested_on": "HGC27 gastric carcinoma cells", "experiment": "Cell viability assay (MTS) HGC27", "format": "cell-based", "conditions": "Homo sapiens, HGC-27, 72 h", "how_it_was_run": "(§1)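 HGC27 and PC-3M-luc cells (2000/well) were read by MTS after compound in 0.5% DMSO. W1 (10^4/well) and MCF-7 (2 × 10^3/well) were given half-log dilutions for 72 h, then MTT for 1 h, with absorbance at 570 nm minus 690 nm. Viability was fitted to a four-parameter logistic curve.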"}, "[7]": {"target": "T3, Sirt2 (Homo sapiens, UniProt Q8IXJ6)", "T3 construct": "the respective sirtuin (Sirt1_134–747, Sirt2_56–356, or Sirt3_118–395) was mixed with; made in house; host or cells: Escherichia coli BL21 Star (DE3)", "T3 sequence (Q8IXJ6 56-356)": "T1 sequence (Q8IXJ6 56-356)", "experiment": "Sirt2 in vitro deacetylation assay (ZMAL, trypsin-based fluorescence)", "format": "biochemical", "conditions": "deacetylation, mean ± SD"}, "[8]": {"target": "T2, HDAC6", "experiment": "HDAC6 degradation rescue experiment with PROTAC B4 (62) in MCF-7 cells (western blot)", "format": "cell-based", "parameters": "endogenous in cells; host or cells: MCF-7", "conditions": "20 μM pretreatment 30 min, then 62 (1 or 10 μM) 6 h"}, "[9]": {"target": "T4, HDAC2 (Homo sapiens, UniProt Q92769)", "T4 construct": "purchased BPS Bioscience 50052", "T4 sequence (Q92769 whole entry)": "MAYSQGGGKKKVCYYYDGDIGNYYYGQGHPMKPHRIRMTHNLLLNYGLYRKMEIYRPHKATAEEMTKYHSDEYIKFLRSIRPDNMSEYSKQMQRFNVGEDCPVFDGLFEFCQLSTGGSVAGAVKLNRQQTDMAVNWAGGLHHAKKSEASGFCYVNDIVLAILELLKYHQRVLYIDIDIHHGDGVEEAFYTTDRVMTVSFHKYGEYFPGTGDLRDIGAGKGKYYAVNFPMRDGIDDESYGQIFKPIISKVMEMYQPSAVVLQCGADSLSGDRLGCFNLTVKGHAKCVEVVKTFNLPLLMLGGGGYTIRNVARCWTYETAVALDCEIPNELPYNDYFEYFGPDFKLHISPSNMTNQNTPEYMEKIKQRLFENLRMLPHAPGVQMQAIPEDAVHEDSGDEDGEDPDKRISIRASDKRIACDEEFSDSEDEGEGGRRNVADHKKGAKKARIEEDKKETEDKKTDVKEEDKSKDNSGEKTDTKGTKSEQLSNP", "experiment": "HDAC2 in vitro deacetylation assay (ZMAL)", "format": "biochemical", "conditions": "mean ± SD"}, "[10]": {"tested_on": "W1 ovarian cancer cells", "experiment": "Cell viability assay (MTT) W1", "format": "cell-based", "conditions": "72 h", "how_it_was_run": "as §1"}}}
{"smiles": "CCCCN(Cc1ccc(C(=O)NO)cc1)C(=O)CCCCn1cc(COc2cccc(Cc3cnc(NC(=O)CSc4nc(C)cc(C)n4)s3)c2)nn1", "note": "[Compound 33, 4-((N-Butyl-5-(4-((3-((2-(2-((4,6-dimethylpyrimidin-2-yl)thio)acetamido)thiazol-5-yl)methyl)phenoxy)methyl)-1H-1,2,3-triazol-1-yl)pentanamido)methyl)-N-hydroxybenzamide]", "values": [{"measurement": "IC50", "setting": "[1]", "result": "9.7 ± 1.3", "unit": "µM"}, {"measurement": "IC50", "setting": "[2]", "result": "2.94 ± 0.45", "unit": "µM"}, {"measurement": "IC50", "setting": "[3]", "result": "> 6", "unit": "µM"}, {"measurement": "inhibition at 6 µM", "setting": "[3]; @ 6 µM, read-out: HDAC5 percentual inhibition", "result": 18, "unit": "%"}, {"measurement": "inhibition at 20 µM", "setting": "[3]; @ 20 μM, read-out: HDAC5 percentual inhibition", "result": 57, "unit": "%"}, {"measurement": "IC50", "setting": "[4]", "result": "> 20", "unit": "µM"}, {"measurement": "inhibition at 6 µM", "setting": "[4]; @ 6 µM, read-out: HDAC4 percentual inhibition", "result": 4, "unit": "%"}, {"measurement": "inhibition at 20 µM", "setting": "[4]; @ 20 μM, read-out: HDAC4 percentual inhibition", "result": 7, "unit": "%"}, {"measurement": "IC50", "setting": "[5]; deacetylation, mean ± SD", "result": "0.043 ± 0.003", "unit": "µM"}, {"measurement": "EC50", "setting": "[6]; MTS, mean ± SD", "result": "12.9 ± 0.9", "unit": "µM"}, {"measurement": "IC50", "setting": "[7]", "result": "0.32 ± 0.11", "unit": "µM"}, {"measurement": "Rescue of HDAC6 from degradation induced by PROTAC 62", "setting": "[8]", "result": "able to rescue HDAC6 from proteasomal degradation induced by 62"}, {"measurement": "IC50", "setting": "[9]", "result": "6 ± 0.2", "unit": "µM"}, {"measurement": "EC50", "setting": "[10]; MTT, mean ± SD", "result": "19.2 ± 1.3", "unit": "µM"}]}
{"smiles": "Cc1cc(C)nc(SCC(=O)Nc2ncc(Cc3cccc(OCc4cn(Cc5ccccc5)nn4)c3)s2)n1", "note": "[Compound 4, SirReal1.1, reference compound]", "values": [{"measurement": "IC50", "setting": "[1]", "result": "1.4 ± 0.3", "unit": "µM"}, {"measurement": "inhibition at 10 µM", "setting": "[5]; @ 10 μM, read-out: HDAC6 percentual inhibition", "result": 18, "unit": "%"}, {"measurement": "inhibition at 50 µM", "setting": "[6]; @ 50 μM, read-out: HGC27 percentual inhibition", "result": 39, "unit": "%"}, {"measurement": "IC50", "setting": "[7]", "result": "0.22 ± 0.01", "unit": "µM"}, {"measurement": "inhibition at 100 µM", "setting": "[10]; @ 0.1 mM, read-out: W1 percentual inhibition", "result": 3, "unit": "%"}]}
